Test results reported in US20130029970A1 (priority 2009, published 2013).
Read-outs that look alike come from different tables or passages of the source.

Tests used:
[1] = target: T1, human CB2 receptors (Homo sapiens, UniProt P34972); experiment: cAMP assay in HEK-293 cells, hCB2 agonist; assay type: cell-based
T1 construct: (cDNA clone) CNR0200000
Outline: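 Stable hCB2 HEK-293 cells in HBSS/10 mM HEPES/0.1% fatty-acid-free BSA incubated 30 min at 37° C with compound; forskolin 90 uM in 3× compound mix.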

[2] = target: T2, human CB2 (hCB2) (Homo sapiens, UniProt P34972); experiment: 35S GTPγS binding assay, hCB2 agonist; assay type: biochemical
T2 construct: (cDNA clone) CNR0200000
Outline: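 Agonist-stimulated [35S]GTPγS (0.1 nM) binding measured by scintillation proximity after 90 min at room temperature. Reaction buffer: 50 mM HEPES pH 7.4, 100 mM NaCl, 5 mM MgCl2, 0.001% saponin plus 20 uM GDP. Membranes (5 μg) came from transfected cells expressing hCB2 cDNA (pcDNA3.1+ vector).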

[3] = target: T3, human CB1 (hCB1) (Homo sapiens, UniProt P21554); experiment: 35S GTPγS binding assay, hCB1 agonist; assay type: biochemical
T3 construct: (cDNA clone) CNR01L000
Excerpt: cDNA expression clones for human CB1 (hCB1, Genbank Accession No. AY225225) and human CB2 (hCB2, Genbank Accession No. AY242132) expressed in vector pcDNA3.1+ were purchased from UMR cDNA Resource Center, Rolla, Mo. (Clone ID CNR01L000 for hCB1; CNR0200000 for hCB2).
Stable, HEK-293-derived cell lines that recombinantly express hCBI or hCB2 were established. In brief, the clone hCB1 (CNR IL) or hCB2 (CNR2) was transfected into human embryonic kidney cells (HEK-293) using Lipofectamine 2000 (Gibco, Cat#11668-019) according to the manufacturer's protocol. Transfected clones were isolated by single colony purification and clones were screened for receptor expression using a whole cell, ^3H—CP 55,940 radioligand binding assay. HEK-293 stable cells were maintained in Dulbecco's modified Eagles medium (DMEM) containing 10% fetal bovine serum, 2 mM L-glutamine and 0.5 mg/mL G-418.
Membranes were isolated from transfected cells as follows. Monolayers of cultured cells were washed twice with phosphate-buffered saline (PBS). Cells were scraped into 20 mM HEPES, pH 7.4, 10 mM EDTA containing complete cocktail protease inhibitors (Roche, Catalog #11 697 498 001) and were homogenized by an electric-powered mechanical probe homogenizer (Omni GLH; probe G7-195S) for 40 seconds at 7000 rpm. Homogenates were centrifuged 10 minutes at 1000×g at 4° C. The supernatant was collected and was centrifuged for 1 hour at 40,000×g. The supernatant was then decanted and the resulting pellet was re-suspended in 20 mM HEPES, pH 7.4, 5 mM MgCl2, 1 mM EDTA, 10% sucrose with complete cocktail protease inhibitors. Protein concentration of membrane suspensions were measured by Bradford Protein Assay using bovine serum albumin as the standard (BioRad catalog #500-0006). Protein concentrations of membrane suspensions were adjusted with the final buffer in the range of 5 to 10 mg/mL and were stored at −80° C. until further use.
Functional assays which monitor G-protein coupled receptor or downstream cellular responses can be used to characterize potential CB1 receptor and/or CB2 receptor agonist or antagonist activities. Direct activation (or inhibition of activation) can be monitored using a GTPγS assay (membrane-based assay) or cAMP assay (whole cell-based assay).
^35S GTPγS binding assays were performed by incubating recombinant cell membranes prepared above (5 μg) in the presence of scintillation proximity assay beads (SPA beads, Catalog #RPNQ0252 GE Healthcare, Buckinghamshire, England) in GTPγS binding buffer [50 mM HEPES (pH 7.4), 100 mM NaCl, 5 mM MgCl2, 0.001% saponin (Sigma catalog #S4521)] supplemented with 20 uM GDP (Sigma catalog #G7127) in the presence or absence of test compound. The reaction was carried out in 96-well microplates with 0.1 nM [^35S]GTPγS (specific activity=1250 Ci/mmol; Perkin Elmer catalog #NEG030X250UC) in a final volume of 100 uL. After a 90 min room temperature incubation, the reaction was analyzed using a scintillation counter (Perkin Elmer Microbeta instrument). Binding data were analyzed using GraphPad Prism.

[4] = GTPγS agonist, HEK-293 membranes, read-out: hCB1 EC50 (GTPyS ag)

T2 sequence (P34972 whole entry): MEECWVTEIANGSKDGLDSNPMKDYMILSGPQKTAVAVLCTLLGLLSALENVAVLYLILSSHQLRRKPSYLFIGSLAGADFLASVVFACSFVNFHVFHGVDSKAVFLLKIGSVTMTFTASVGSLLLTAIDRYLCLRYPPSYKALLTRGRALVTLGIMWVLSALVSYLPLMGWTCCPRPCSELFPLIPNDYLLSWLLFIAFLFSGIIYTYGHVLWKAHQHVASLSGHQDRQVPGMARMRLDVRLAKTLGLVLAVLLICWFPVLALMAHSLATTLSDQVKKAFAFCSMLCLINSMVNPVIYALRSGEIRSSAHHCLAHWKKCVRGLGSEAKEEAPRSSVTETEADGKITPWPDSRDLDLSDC
T1 sequence (P34972 whole entry): as above
T3 sequence (P21554 whole entry): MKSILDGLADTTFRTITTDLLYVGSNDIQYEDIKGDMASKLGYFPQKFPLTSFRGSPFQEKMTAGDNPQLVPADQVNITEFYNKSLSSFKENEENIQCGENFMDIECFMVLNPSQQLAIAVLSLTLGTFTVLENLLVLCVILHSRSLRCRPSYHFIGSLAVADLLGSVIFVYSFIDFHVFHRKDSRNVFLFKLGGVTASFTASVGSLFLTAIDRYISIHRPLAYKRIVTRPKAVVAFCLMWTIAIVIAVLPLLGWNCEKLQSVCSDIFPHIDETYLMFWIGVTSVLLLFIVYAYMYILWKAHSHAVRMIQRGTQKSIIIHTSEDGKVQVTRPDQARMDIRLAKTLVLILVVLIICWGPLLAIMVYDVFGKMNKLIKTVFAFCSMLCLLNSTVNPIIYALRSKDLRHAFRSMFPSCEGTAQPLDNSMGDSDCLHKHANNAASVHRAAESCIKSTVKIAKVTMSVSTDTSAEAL

SMILES | EC50 [1] | EC50 [2] | EC50 [3, 4] | EC50 [3] | EC50 ([1]; inhibition of forskolin-stimulated cAMP, HEK-293 cells, read-out: hCB2 EC50 (cAMP ag)) | EC50 ([2]; GTPγS agonist, HEK-293 membranes, read-out: hCB2 EC50 (GTPyS ag))
Cc1cc2cc(C(=O)c3ccccc3OC(F)(F)F)sc2n1CCN1CCOCC1 [Compound 15, (5-Methyl-6-(2-morpholinoethyl)-6H-thieno[2,3-b]pyrrol-2-yl)(2-(trifluoromethoxy)phenyl)methanone] | < 100 nM | < 100 nM | 100 to 1000 nM |  |  | 
Cc1c(Cl)c2cc(C(=O)c3cccc(Cl)c3Cl)sc2n1CCN1CCOCC1 [Compound 27, (4-chloro-5-methyl-6-(2-morpholinoethyl)-6H-thieno[2,3-b]pyrrol-2-yl)(2,3-dichlorophenyl)methanone] | < 100 nM | < 100 nM |  | 100 to 1000 nM |  | 
Cc1cc2cc(C(=O)c3cc(Cl)ccc3Cl)sc2n1CCN1CCOCC1 [Compound 35, (2,5-Dichlorophenyl)(5-methyl-6-(2-morpholinoethyl)-6H-thieno[2,3-b]pyrrol-2-yl)methanone] | < 100 nM | < 100 nM | 100 to 1000 nM |  |  | 
COc1ccc(C(=O)c2cc3cc(C)n(CCCNC(=O)C(F)(F)F)c3s2)cc1 [Compound 76, 2,2,2-Trifluoro-N-(3-(2-(4-methoxybenzoyl)-5-methyl-6H-thieno[2,3-b]pyrrol-6-yl)propyl)acetamide] | 100 to 1000 nM | 100 to 1000 nM | < 100 nM |  |  | 
COc1ccc(C(=O)c2cc3cc(C)n(CCC(C)(C)O)c3s2)cc1 [Compound 77, (6-(3-Hydroxy-3-methylbutyl)-5-methyl-6H-thieno[2,3-b]pyrrol-2-yl)(4-methoxyphenyl)methanone] | 100 to 1000 nM | 100 to 1000 nM | < 100 nM |  |  | 
Cc1ccc(C(=O)c2cc3cc(C)n(CCN4CCOCC4)c3s2)c(Cl)c1 [Compound 86, (2-Chloro-4-methylphenyl)(5-methyl-6-(2-morpholinoethyl)-6H-thieno[2,3-b]pyrrol-2-yl)methanone] | < 100 nM | < 100 nM | 1000 to 10000 nM |  |  | 
COc1ccc(C(=O)c2cc3cc(C)n(CCCN4CCOCC4)c3s2)cc1 [Compound 107, (4-Methoxyphenyl)(5-methyl-6-(3-morpholinopropyl)-6H-thieno[2,3-b]pyrrol-2-yl)methanone] |  |  | 100 to 1000 nM |  | < 100 nM | < 100 nM
COc1ccc(C(=O)c2cc3cc(C)n(CCN4CCOCC4)c3s2)c(Cl)n1 [Compound 137, (2-chloro-6-methoxypyridinyl-3-yl)(5-methyl-6-(2-morpholinoethyl)-6H-thieno[2,3-b]pyrrol-2-yl)methanone] | < 100 nM | < 100 nM | 1000 to 10000 nM |  |  | 
COCCN(C)CCn1c(C)cc2cc(C(=O)c3ccc(OC)nc3)sc21 [Compound 157] | < 100 nM | 1000 to 10000 nM | > 10000 nM |  |  | 
COc1ccc(C(=O)c2cc3cc(C)n(CC(OC)OC)c3s2)cn1 [Compound 161, (6-(2,2-dimethoxyethyl)-5-methyl-6H-thieno[2,3-b]pyrrol-2-yl)(6-methoxypyridin-3-yl)methanone] | 100 to 1000 nM | 1000 to 10000 nM | > 10000 nM |  |  | 
Cc1cc2cc(C(=O)c3ccc(O)cc3F)sc2n1CCN1CCOCC1 [Compound 165, (2-fluoro-4-hydroxyphenyl)(5-methyl-6-(2-morpholinoethyl)-6H-thieno[2,3-b]pyrrol-2-yl)methanone] | < 100 nM | 100 to 1000 nM | > 10000 nM |  |  | 
COc1ccc(C(=O)c2cc3cc(C)n(CC4CCC(F)(F)CC4)c3s2)cn1 [Compound 170, (6-((4,4-difluorocyclohexyl)methyl)-5-methyl-6H-thieno[2,3-b]pyrrol-2-yl)(6-methoxypyridin-3-yl)methanone] | < 100 nM | < 100 nM | < 100 nM |  |  | 
